According to patent US20190233884A1 (University of Southern California, priority 2016, published 2019):
Where a name gives a salt, the structure may show the parent alone. Read-outs that look alike come from different tables or passages of the source.

Key:
[1] = cited from earlier work
clinical = settings: human, in vivo
Text: Neither TPI renal clearance (CLren) nor or tubular secretory Clearance (CLsec) were associated with SNPs in MATE1 (rs2289669 or rs2252281) when tested individually (FIG. 8). […] (FIGS. 8-10). TPI is strongly associated with PFS and OS with regard to renal clearance difference by OCT2 and MATE1 gene-gene interaction.

Structure (SMILES) | CLrenal and CLsec ([1]; healthy volunteers, OCT2 rs316019 heterozygote or homozygote along with MATE1 rs225281 heterozygote) | Clrenal ([1]; stratum 3 (MATE1 WT and OCT2 HM) compared with stratum 1 (MATE1 WT and OCT2 WT)) | Clrenal (clinical) | CL renal (clinical; Clrenal)
CN(C)C(=N)N=C(N)N [metformin, N,N-Dimethylimidodicarbonimidic diamide] | significantly lower | relatively higher | – | –
N=C1CCCN1Cc1[nH]c(=O)[nH]c(=O)c1Cl [TPI, tipiracil hydrochloride] | – | – | 29.6 L/h | 555 mL/min
